# Reference: article PMC10108353, “Design and Pharmacological Characterization of α4β1 Integrin Cyclopeptide Agonists: Computational Investigation of Ligand Determinants for Agonism versus Antagonism” (Journal of Medicinal Chemistry, 2023)
# Starred links: 1 amine or outer side, 2 acyl side, 3 side chain; linkers in the order of their positions; H or OH if unused. Positions of bridges follow the written chain, without caps; N, C: chain ends. Non-standard residues stand in square brackets, D forms with d. Residues, ends and D or L forms follow the SMILES beside them. Groups on a side chain read outwards from the residue. *: point of attachment. dPhe(4-NH2) = Nc1ccc(C[C@@H](N)C(=O)O)cc1; Phe(4-NH2) = Nc1ccc(C[C@H](N)C(=O)O)cc1; X1 = O=C(Cc1ccc(N[*:1])cc1)[*:2]; NH(2-Me-phenyl) = Cc1ccccc1N*; Phg = N[C@H](C(=O)O)c1ccccc1; d(β3hA) = C[C@@H](N)CC(=O)O; CO = O=C([*:1])[*:2]; NHPr = CCCN*
# Legend:
# [1] = biological target: T1, α4β1 integrin (Homo sapiens, UniProt P05556+P13612); test: Jurkat E6.1 cell adhesion to FN; conditions: for agonist or antagonist behaviour, FN/Jurkat E6.1 α4β1: agonist = adhesion index >1, antagonist = adhesion index <1
# Experimental: (§1) Cells were seeded in 96-well plates coated with the specific natural human recombinant ligands (Table 1) and allowed to adhere in the presence of increasing concentrations (10^–10 to 10^–4 M) of the synthesized CPPs before the determination of the number of adherent cells (as described in Experimental Section).
# For adhesion assays on Jurkat E6.1, RPMI8866, or HL60 cells, black 96-well plates were coated overnight at 4 °C with VCAM-1 or ICAM-1 or MAdCAM-1 (5 μg/mL) or Fg (10 μg/mL). The cells were counted, stained with CellTracker green CMFDA (12.5 μM, 30 min at 37 °C, Life Technologies), and after three washes, were preincubated with increasing concentrations of new CPP (10^–10 to 10^–4 M) or with the vehicle (methanol) for 30 min at 37 °C. Then cells were plated (500 000/well) on coated wells and incubated for 30 min at 37 °C. After three washes, adhered cells were lysed with 0.5% Triton X-100 in PBS (30 min at 4 °C) and fluorescence was measured (Ex485 nm/Em535 nm) in an EnSpire Multimode Plate Reader (PerkinElmer, Waltham, MA). For adhesion assays mediated by α5β1 integrin, 96-well plates were coated by passive adsorption with FN (10 μg/mL) overnight at 4 °C. K562 cells were counted and preincubated with various concentrations of the peptides or with the vehicle (methanol) for 30 min at RT. Afterward, the cells were plated (50 000 cells/well) and incubated at RT for 1 h. The wells were then washed with 1% BSA in PBS (phosphate-buffered saline) to take off nonadherent cells, and 50 μL of hexosaminidase substrate was added; after addition of 100 μL of stopping solution, the plates were read at 405 nm. In both types of adhesion assay, the number of adherent cells was determined by comparison with a standard curve made in the same plate. Experiments were carried out in quadruplicate and repeated at least three times.
# Jurkat E6.1 (expressing α4β1 and αLβ2 integrin), K562 (expressing α5β1 integrin) and HL60 (expressing αMβ2 integrin) cell lines were purchased from ATCC (Rockville, MD, USA); these cells were routinely cultured in RPMI-1640 (Life Technologies) supplemented with glutamine and 10% FBS.
# Cells were grown at 37 °C under 5% CO2 humidified atmosphere.
# [2] = after 2 h, 37 °C, RP HPLC
# Experimental: Enzymatic stability tests were carried out in triplicate and repeated three times using mouse serum (Sigma-Aldrich). Peptides was dissolved in Tris buffer pH 7.4 to a 10 mM concentration, and 10 mL aliquots were added to 190 mL of serum. Incubations were maintained at 37 °C, and 20 mL aliquots were sampled from the incubation mixtures at the indicated times of 0, 0.15, 0.5, 1.0, 2.0, and 3.0 h. Samples were diluted with 90 mL of CH3CN, and enzymatic activity was definitively stopped by adding 90 mL of 0.5% AcOH. After centrifugation (13 000g for 20 min), the supernatants were separated and the amount of remaining peptide was assessed by RP HPLC.
# [3] = biological target: T2, α4β7 integrin (Homo sapiens, UniProt P13612+P26010); test: cell-based; format: cell-based; conditions: for agonist or antagonist behaviour, MAdCAM-1/RPMI8866 α4β7: agonist = adhesion index >1, antagonist = adhesion index <1
# T2 construct: RPMI8866 cells expressing α4β7 integrin to the ligand MAdCAM-1; endogenous in cells; host or cells: RPMI8866
# T2 sequence (P13612 34-1032): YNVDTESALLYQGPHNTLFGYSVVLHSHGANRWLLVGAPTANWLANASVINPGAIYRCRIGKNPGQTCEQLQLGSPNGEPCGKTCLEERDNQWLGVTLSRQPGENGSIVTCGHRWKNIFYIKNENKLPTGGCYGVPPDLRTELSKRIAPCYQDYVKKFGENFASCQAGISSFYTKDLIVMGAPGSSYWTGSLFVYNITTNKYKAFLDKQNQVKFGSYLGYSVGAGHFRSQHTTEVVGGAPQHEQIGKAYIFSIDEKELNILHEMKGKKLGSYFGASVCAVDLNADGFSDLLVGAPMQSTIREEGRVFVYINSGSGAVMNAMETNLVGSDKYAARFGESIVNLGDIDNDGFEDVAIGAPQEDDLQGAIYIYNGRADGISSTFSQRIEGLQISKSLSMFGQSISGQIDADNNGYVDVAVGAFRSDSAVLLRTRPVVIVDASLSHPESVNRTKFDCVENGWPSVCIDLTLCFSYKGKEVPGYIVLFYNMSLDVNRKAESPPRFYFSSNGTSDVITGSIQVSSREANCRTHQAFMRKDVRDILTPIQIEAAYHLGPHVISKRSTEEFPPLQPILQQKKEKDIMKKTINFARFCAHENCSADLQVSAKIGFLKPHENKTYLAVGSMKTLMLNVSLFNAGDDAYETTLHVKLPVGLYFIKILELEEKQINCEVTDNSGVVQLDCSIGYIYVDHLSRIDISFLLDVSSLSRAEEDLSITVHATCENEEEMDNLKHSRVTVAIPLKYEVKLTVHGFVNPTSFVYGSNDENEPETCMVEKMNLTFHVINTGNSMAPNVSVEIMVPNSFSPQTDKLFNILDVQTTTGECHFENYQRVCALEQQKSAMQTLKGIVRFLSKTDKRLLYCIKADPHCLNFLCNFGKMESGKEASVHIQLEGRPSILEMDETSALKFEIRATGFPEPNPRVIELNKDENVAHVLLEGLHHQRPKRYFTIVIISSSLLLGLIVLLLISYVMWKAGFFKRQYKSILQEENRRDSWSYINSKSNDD
# T2 sequence (P26010 20-798): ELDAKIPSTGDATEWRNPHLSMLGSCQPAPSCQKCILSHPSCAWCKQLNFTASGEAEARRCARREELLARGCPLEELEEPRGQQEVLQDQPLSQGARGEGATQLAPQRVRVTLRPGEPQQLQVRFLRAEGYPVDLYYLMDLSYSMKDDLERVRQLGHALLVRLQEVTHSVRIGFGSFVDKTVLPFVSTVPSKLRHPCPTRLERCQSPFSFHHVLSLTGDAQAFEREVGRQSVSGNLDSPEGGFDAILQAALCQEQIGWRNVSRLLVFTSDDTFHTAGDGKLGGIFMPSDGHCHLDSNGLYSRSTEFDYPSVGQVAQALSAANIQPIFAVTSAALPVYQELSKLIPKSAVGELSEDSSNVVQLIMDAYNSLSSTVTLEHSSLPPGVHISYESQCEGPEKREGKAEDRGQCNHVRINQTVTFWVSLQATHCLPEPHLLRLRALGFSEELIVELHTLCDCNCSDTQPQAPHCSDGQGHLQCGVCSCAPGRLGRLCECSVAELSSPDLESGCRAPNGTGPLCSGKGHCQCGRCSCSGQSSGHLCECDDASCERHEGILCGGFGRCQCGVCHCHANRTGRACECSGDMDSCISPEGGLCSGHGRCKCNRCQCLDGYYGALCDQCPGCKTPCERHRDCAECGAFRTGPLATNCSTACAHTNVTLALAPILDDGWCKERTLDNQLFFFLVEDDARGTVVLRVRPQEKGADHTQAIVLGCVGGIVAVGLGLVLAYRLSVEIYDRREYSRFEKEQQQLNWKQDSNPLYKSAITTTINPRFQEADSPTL
# From the text: mediated Jurkat cell adhesion to FN.
# [4] = test system: α4β1 integrin; set-up: method as in PMID 23703610; conditions: low affinity agonist; cited from earlier work
# [5] = biological target: T1, α4β1 integrin; test: Jurkat E6.1 cell adhesion to VCAM-1; conditions: agonist = adhesion index >1, antagonist = adhesion index <1
# Experimental: as §1
# For adhesion assays on Jurkat E6.1, RPMI8866, or HL60 cells, black 96-well plates were coated overnight at 4 °C with VCAM-1 or ICAM-1 or MAdCAM-1 (5 μg/mL) or Fg (10 μg/mL). The cells were counted, stained with CellTracker green CMFDA (12.5 μM, 30 min at 37 °C, Life Technologies), and after three washes, were preincubated with increasing concentrations of new CPP (10^–10 to 10^–4 M) or with the vehicle (methanol) for 30 min at 37 °C. Then cells were plated (500 000/well) on coated wells and incubated for 30 min at 37 °C. After three washes, adhered cells were lysed with 0.5% Triton X-100 in PBS (30 min at 4 °C) and fluorescence was measured (Ex485 nm/Em535 nm) in an EnSpire Multimode Plate Reader (PerkinElmer, Waltham, MA). For adhesion assays mediated by α5β1 integrin, 96-well plates were coated by passive adsorption with FN (10 μg/mL) overnight at 4 °C. K562 cells were counted and preincubated with various concentrations of the peptides or with the vehicle (methanol) for 30 min at RT. Afterward, the cells were plated (50 000 cells/well) and incubated at RT for 1 h. The wells were then washed with 1% BSA in PBS (phosphate-buffered saline) to take off nonadherent cells, and 50 μL of hexosaminidase substrate was added; after addition of 100 μL of stopping solution, the plates were read at 405 nm. In both types of adhesion assay, the number of adherent cells was determined by comparison with a standard curve made in the same plate. Experiments were carried out in quadruplicate and repeated at least three times. […]
# [6] = test system: ERK1/2 phosphorylation mediated by α4β1 integrin; test: ERK1/2 phosphorylation in Jurkat E6.1 cells (Western blot); format: cell-based; conditions: compound 10^–7 to 10^–9 M, no FN, vs vehicle
# Experimental: Intracellular signaling generated by the interaction of ECM components with α4β1 integrin produces an increase in the phosphorylation of cytoplasmatic second messengers such as ERK1/2 that contribute to α4 integrin-mediated cell functions.
# Western blot analysis was performed as previously described, with the following modifications. […] On the other hand, after 1 h incubation with integrin antagonists, the cells were then seeded on FN (10 μg/mL) coated plates for 1 h. Integrin agonists were not incubated with FN. At the end of the incubation time, Jurkat E6.1 cells were lysed on ice using a mammalian protein extraction reagent (M-PER; Pierce, Rockford, IL) supplemented with a phosphatase inhibitor cocktail. Protein extracts were quantified using a BCA protein assay kit (Pierce), separated by 12% SDS-PAGE gel, transferred onto nitrocellulose membranes, and immunoblotted with anti-phospho-ERK1/2 (1:1000) (Cell Signaling Technology, Danvers, MA) or anti-total ERK1/2 antibodies (1:2500) (Cell Signaling Technology). Protocols for digital image acquisition and analysis have been previously described.[73] Densitometric analysis of the bands is reported (mean ± SD; n = 3); the amount of phosphorylated ERK1/2 (pERK1/2) is normalized to that of total ERK1/2 (totERK1/2). Experiments were replicated independently at least three times. Statistical analyses were performed using one-way ANOVA and the post hoc Newman–Keuls test.
# [7] = biological target: αLβ2 integrin (Homo sapiens, UniProt P05107+P20701); test: Jurkat E6.1 cell adhesion to ICAM-1
# Experimental: as §1
# For adhesion assays on Jurkat E6.1, RPMI8866, or HL60 cells, black 96-well plates were coated overnight at 4 °C with VCAM-1 or ICAM-1 or MAdCAM-1 (5 μg/mL) or Fg (10 μg/mL). The cells were counted, stained with CellTracker green CMFDA (12.5 μM, 30 min at 37 °C, Life Technologies), and after three washes, were preincubated with increasing concentrations of new CPP (10^–10 to 10^–4 M) or with the vehicle (methanol) for 30 min at 37 °C. […] After three washes, adhered cells were lysed with 0.5% Triton X-100 in PBS (30 min at 4 °C) and fluorescence was measured (Ex485 nm/Em535 nm) in an EnSpire Multimode Plate Reader (PerkinElmer, Waltham, MA). […] K562 cells were counted and preincubated with various concentrations of the peptides or with the vehicle (methanol) for 30 min at RT. […] The wells were then washed with 1% BSA in PBS (phosphate-buffered saline) to take off nonadherent cells, and 50 μL of hexosaminidase substrate was added; after addition of 100 μL of stopping solution, the plates were read at 405 nm. […]
# [8] = from H-dPhu-Leu-Asp(OBn)-Val-(R)-β3homoAla-OH; amide bond; 16-membered ring; HBTU/HOBt/DIPEA; DMF; 25.0 °C
# T1 sequence (P05556 21-798, one chain of several): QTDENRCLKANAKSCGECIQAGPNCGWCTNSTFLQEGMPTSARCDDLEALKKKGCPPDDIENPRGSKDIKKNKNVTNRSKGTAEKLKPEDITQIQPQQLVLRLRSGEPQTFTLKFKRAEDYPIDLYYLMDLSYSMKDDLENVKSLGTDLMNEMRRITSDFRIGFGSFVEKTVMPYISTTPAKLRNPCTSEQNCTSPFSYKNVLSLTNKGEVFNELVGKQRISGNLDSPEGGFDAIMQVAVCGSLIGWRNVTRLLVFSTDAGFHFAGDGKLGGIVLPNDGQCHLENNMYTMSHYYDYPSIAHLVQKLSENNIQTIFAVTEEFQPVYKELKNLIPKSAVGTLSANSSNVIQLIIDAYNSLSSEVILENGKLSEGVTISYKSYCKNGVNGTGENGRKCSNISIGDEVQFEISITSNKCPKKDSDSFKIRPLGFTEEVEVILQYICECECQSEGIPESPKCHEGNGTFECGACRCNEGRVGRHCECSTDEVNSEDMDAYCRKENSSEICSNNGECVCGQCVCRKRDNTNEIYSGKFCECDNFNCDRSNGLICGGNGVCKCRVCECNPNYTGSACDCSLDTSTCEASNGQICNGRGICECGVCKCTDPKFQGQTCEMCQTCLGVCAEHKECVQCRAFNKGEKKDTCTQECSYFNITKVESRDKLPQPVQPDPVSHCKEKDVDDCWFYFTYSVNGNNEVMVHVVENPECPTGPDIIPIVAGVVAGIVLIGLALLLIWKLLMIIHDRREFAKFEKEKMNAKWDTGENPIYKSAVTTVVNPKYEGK
# αLβ2 integrin, sequence (P20701 26-1170): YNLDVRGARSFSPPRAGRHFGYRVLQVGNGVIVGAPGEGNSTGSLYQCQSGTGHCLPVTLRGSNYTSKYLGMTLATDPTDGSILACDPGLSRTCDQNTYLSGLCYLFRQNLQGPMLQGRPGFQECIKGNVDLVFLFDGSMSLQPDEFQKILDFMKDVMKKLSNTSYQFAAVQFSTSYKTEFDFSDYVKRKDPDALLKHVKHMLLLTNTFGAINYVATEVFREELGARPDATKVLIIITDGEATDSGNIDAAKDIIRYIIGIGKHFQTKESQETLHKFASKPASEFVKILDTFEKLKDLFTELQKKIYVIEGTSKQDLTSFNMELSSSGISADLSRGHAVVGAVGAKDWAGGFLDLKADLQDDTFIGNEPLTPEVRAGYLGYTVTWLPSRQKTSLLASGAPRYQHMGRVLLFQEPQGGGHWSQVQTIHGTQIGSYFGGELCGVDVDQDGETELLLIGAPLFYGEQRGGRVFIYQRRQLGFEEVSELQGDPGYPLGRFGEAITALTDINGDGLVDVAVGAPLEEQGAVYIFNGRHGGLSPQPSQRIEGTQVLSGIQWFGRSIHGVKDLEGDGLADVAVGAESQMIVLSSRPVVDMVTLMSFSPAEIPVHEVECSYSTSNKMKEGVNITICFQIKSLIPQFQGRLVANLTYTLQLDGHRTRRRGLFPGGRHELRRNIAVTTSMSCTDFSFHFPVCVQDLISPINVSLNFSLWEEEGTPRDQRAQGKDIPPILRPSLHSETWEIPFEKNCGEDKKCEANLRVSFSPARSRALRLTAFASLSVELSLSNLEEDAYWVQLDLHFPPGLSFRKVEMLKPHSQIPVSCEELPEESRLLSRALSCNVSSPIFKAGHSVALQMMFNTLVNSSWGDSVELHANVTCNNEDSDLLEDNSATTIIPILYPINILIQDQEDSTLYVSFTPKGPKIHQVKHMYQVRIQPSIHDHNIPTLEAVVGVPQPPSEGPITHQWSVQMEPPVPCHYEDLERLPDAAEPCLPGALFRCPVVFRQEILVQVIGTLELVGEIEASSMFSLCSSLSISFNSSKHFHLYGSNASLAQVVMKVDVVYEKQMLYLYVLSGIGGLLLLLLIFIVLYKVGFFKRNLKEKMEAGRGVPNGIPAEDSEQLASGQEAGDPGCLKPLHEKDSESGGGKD
# αLβ2 integrin, sequence (P05107 23-769): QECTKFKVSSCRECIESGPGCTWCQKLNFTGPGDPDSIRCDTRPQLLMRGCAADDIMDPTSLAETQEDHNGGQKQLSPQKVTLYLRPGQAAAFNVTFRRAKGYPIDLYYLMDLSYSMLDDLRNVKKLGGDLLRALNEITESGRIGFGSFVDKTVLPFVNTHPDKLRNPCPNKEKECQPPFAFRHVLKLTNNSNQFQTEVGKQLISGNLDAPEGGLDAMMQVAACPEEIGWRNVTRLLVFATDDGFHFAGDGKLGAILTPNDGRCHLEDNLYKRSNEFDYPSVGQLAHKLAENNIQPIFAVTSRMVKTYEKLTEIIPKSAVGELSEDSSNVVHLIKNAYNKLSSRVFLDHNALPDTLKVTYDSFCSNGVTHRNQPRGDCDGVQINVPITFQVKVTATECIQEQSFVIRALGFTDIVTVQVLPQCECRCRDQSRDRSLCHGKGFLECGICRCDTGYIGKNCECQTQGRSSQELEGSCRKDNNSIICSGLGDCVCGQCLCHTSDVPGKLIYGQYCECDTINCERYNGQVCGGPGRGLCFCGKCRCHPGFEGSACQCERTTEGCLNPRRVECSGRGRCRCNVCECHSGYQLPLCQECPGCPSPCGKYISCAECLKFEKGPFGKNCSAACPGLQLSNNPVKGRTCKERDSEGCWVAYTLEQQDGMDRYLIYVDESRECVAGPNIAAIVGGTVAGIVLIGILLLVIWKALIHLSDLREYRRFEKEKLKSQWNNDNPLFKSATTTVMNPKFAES
compound,measurement,setting,value
"CCCNC(=O)[C@@H]1CC(=O)N[C@@H](Cc2ccc(NC(=O)Nc3ccccc3C)cc2)C(=O)N[C@@H](CC(C)C)C(=O)N[C@@H](CC(=O)O)C(=O)N[C@@H](C(C)C)C(=O)N1 [compound 13, c[(S)-PhU-Leu-Asp-Val-(S)-isoAsp(nPr)]] ([Phe(4-NH2)]([CO-NH(2-Me-phenyl)])LDVD-NHPr; lactam N-5 (inferred))",IC50,[1],> 5 µM
same,"agonist or antagonist behaviour, FN/Jurkat E6.1 α4β1",[1],complete loss of activity
"Cc1ccccc1NC(=O)Nc1ccc(CC(=O)N[C@@H](CC(C)C)C(=O)N[C@@H](CC(=O)O)C(=O)N[C@H](C(=O)N2CCC[C@H]2C(=O)O)C(C)C)cc1 [BIO1211, MPUPA-LDVP-OH] ({NH(2-Me-phenyl)-CO}-[X1]LDVP-OH)",stability in mouse serum,[2],almost completely hydrolyzed
same,"agonist or antagonist behaviour, MAdCAM-1/RPMI8866 α4β7",[3],inactive
"Cc1ccccc1NC(=O)Nc1ccc(C[C@@H]2NC(=O)C[C@@H](C(=O)O)NC(=O)[C@H](C(C)C)NC(=O)[C@H](CC(=O)O)NC(=O)[C@H](Cc3ccccc3)NC2=O)cc1 [compound 14, c[(S)-Phu-Phe-Asp-Val-(S)-isoAsp]] ([Phe(4-NH2)]([CO-NH(2-Me-phenyl)])FDVD-OH; lactam N-5)",IC50,[1],> 5 µM
CCCC[C@@H](COC(=O)N(Cc1cccs1)Cc1cccs1)NC(=O)N[C@@H](CC(=O)OC)c1ccc2c(c1)OCO2 [THI0019],IC50,[4],1000 to 2000 µM
"Cc1ccccc1NC(=O)Nc1ccc(C[C@@H]2NC(=O)C[C@@H](C(=O)O)NC(=O)[C@H](C(C)C)NC(=O)[C@H](C)NC(=O)[C@H](CC(C)C)NC2=O)cc1 [12a, c[(S)-Phu-Leu-Ala-Val-(S)-isoAsp]] ([Phe(4-NH2)]([CO-NH(2-Me-phenyl)])LAVD-OH; lactam N-5 (inferred))","agonist or antagonist behaviour, FN/Jurkat E6.1 α4β1",[1],agonist
same,"agonist or antagonist behaviour, VCAM-1/Jurkat E6.1 α4β1",[5],agonist
same,"effect on ERK1/2 phosphorylation, compound administered alone",[6],significant concentration-dependent increase of ERK1/2 phosphorylation
same,IC50,[7],> 5 µM
same,IC50,[3],> 5 µM
same,"agonist or antagonist behaviour, MAdCAM-1/RPMI8866 α4β7",[3],completely lost activity
"Cc1ccccc1NC(=O)Nc1ccc(C[C@H]2NC(=O)C[C@@H](C(=O)O)NC(=O)[C@H](C(C)C)NC(=O)[C@H](C)NC(=O)[C@H](CC(C)C)NC2=O)cc1 [12c, c[(R)-Phu-Leu-Ala-Val-(S)-isoAsp]] ([dPhe(4-NH2)]([CO-NH(2-Me-phenyl)])LAVD-OH; lactam N-5 (inferred))","agonist or antagonist behaviour, FN/Jurkat E6.1 α4β1",[1],agonist
"Cc1ccccc1NC(=O)Nc1ccc(C[C@H]2NC(=O)C[C@H](C(=O)O)NC(=O)[C@H](C(C)C)NC(=O)[C@H](CC(=O)O)NC(=O)[C@H](CC(C)C)NC2=O)cc1 [3d, c[(R)-Phu-Leu-Asp-Val-(R)-isoAsp]] ([dPhe(4-NH2)]([CO-NH(2-Me-phenyl)])LDV[dD]-OH; lactam N-5 (inferred))","agonist or antagonist behaviour, FN/Jurkat E6.1 α4β1",[1],agonist
same,"agonist or antagonist behaviour, VCAM-1/Jurkat E6.1 α4β1",[5],agonist
same,"effect on ERK1/2 phosphorylation, compound administered alone",[6],significant concentration-dependent increase of ERK1/2 phosphorylation
"Cc1ccccc1NC(=O)Nc1ccc(C[C@@H]2NC(=O)C[C@@H](C(=O)O)NC(=O)[C@H](C(C)C)NC(=O)[C@H](CC(=O)O)NC(=O)[C@H](CC(C)C)NC2=O)cc1 [3a, c[(S)-Phu-Leu-Asp-Val-(S)-isoAsp]] ([Phe(4-NH2)]([CO-NH(2-Me-phenyl)])LDVD-OH; lactam N-5 (inferred))","agonist or antagonist behaviour, FN/Jurkat E6.1 α4β1",[1],agonist
same,"agonist or antagonist behaviour, VCAM-1/Jurkat E6.1 α4β1",[5],agonist
same,"effect on ERK1/2 phosphorylation, compound administered alone",[6],significant concentration-dependent increase of ERK1/2 phosphorylation
same,"agonist or antagonist behaviour, MAdCAM-1/RPMI8866 α4β7",[3],agonist
"Cc1ccccc1NC(=O)Nc1ccc(C[C@@H]2NC(=O)C[C@@H](C)NC(=O)[C@H](C(C)C)NC(=O)[C@H](CC(=O)O)NC(=O)[C@H](CC(C)C)NC2=O)cc1 [11a, c[(S)-Phu-Leu-Asp-Val-(R)-β^3homoAla]] (cyclo([Phe(4-NH2)]([CO-NH(2-Me-phenyl)])LDV[d(β3hA)]))",IC50,[1],> 5 µM
"Cc1ccccc1NC(=O)Nc1ccc(C[C@H]2NC(=O)C[C@@H](C(=O)O)NC(=O)[C@H](c3ccccc3)NC(=O)[C@H](CC(=O)O)NC(=O)[C@H](CC(C)C)NC2=O)cc1 [compound 16, c[(R)-Phu-Leu-Asp-Phg-(S)-isoAsp]] ([dPhe(4-NH2)]([CO-NH(2-Me-phenyl)])LD[Phg]D-OH; lactam N-5)",IC50,[1],> 5 µM
Cc1ccccc1NC(=O)Nc1ccc(C[C@H]2NC(=O)C[C@@H](C)NC(=O)[C@H](C(C)C)NC(=O)[C@H](CC(=O)OCc3ccccc3)NC(=O)[C@H](CC(C)C)NC2=O)cc1 [H-dPhu-Leu-Asp(OBn)-Val-(R)-β3homoAla-OH],"ring closure, yield after HPLC",[8],33%
